# Source: patent US9220721B2, “Methods for heart regeneration” (The Salk Institute for Biological Studies, priority 2012, dated 2015)
# Test system: cmlc2:GFP transgenic fish embryos
# Assay: Morpholino and microRNA injections in zebrafish embryos
# Assay type: in vivo
# Conditions: injection at one-cell stage
# Procedure: Morpholino and microRNA Injections in Zebrafish Embryos. Morpholinos (Gene Tools) were dissolved in water at a 2 mM stock concentration and diluted to a 2 ng/nl working concentration in PBS/phenol red solution. Embryo injections were performed by injecting ˜1 nl morpholino solution at the 1-cell stage using a FemtoJet (Eppendorf). For microRNA mimic injection, a miR-99/100 equimolar mixture at 2 ng/nl in PBS was employed. Morphants were evaluated at 24, 48 and 72 h in a StereoLumar stereoscope (Zeiss).
row,Substance,ventricle size
1,Fntb morpholino: translation-blocking morpholino 5′-GCGCCTCTTCCATGATGAGCTCTCA-3′ (SEQ ID NO: 1128) (all phosphorodiamidate morpholino (PMO)),significantly reduced ventricle size
2,Smarca5 morpholino: translation-blocking morpholino 5′-CTTCTTCCCGCTGCTGCTCCATGCT-3′ (SEQ ID NO: 1129) (all phosphorodiamidate morpholino (PMO)),significantly reduced ventricle size
